Measured values from US20240041050A1, “CELL PENETRATING PEPTIDE MEDIATED RNA TRANSDUCTION WITHIN INSECT CELLS” (PIONEER HI-BRED INTERNATIONAL, INC., priority 2020, published 2024).
Ends that are not written are not given here.

Tests used:
S2 cells = assay: CPP-mediated enhancement of Cy3-dsRNA uptake into insect cells; assay type: cell-based, Drosophila melanogaster
From the text: (§1) Sample preparation and analysis methods were based on those previously reported (Jafari et al. (201 4) “Serum stability and physicochemical characterization of a novel amphipathic peptide C6M 1 for siRNA delivery”, PLoS One, 9(5), e97797; and Gillet et al. (2017) “Investigating Engineered Ribonucleoprotein Particles to Improve Oral RNAi Delivery in Crop Insect Pests”, Frontiers in Physiology, 8(256), doi: 10.3389/fphys.2017.00256). Reagents are described in Examples 1 and 2. Nanocomplex samples were prepared in one of several ways, depending on type of CPP, RNA, or assay. For insect cell-based assays with CPP-FAM or CPP·mRNA, increasing amounts of CPP (from 25 μM to 100 μM, in 25 μM increments) were used alone or mixed with […] mRNA in water and incubated at 25° C. for 15 minutes prior to cell treatment. […] Final optimal CPP concentration was assessed by amount of fluorescent signal apparent within cells. […] Final optimal molar ratio selected for cell experiments were determined by increase of the apparent size of the Cy3-dsRNA band on a native agarose gel (FIG. 2A and FIG. 2B), and/or appearance and increase in size of the complex peak detected by a Zetasizer Ultra (Malvern Panalytical, Malvern, United Kingdom) DLS instrument (FIG. 2C). […] Final optimal BAPC1 concentration was assessed by amount of fluorescent signal apparent within cells. […]

Sf9 cells = assay: as above; assay type: cell-based, Spodoptera frugiperda
From the text: as §1

[1] = same amount as used in the complexes, no CPP

“UCCUUGAUAUCCGGUUCGGUA / AGGAACUAUAGGCCAAGCCAU (Cy3 at each 5' end, chemistry not fully specified; one strand is listed 3' to 5') [Cy3-siRNA]” was tested, and the “fluorescent signal of YFP or Cy3 in single-component treated cells” value (S2 cells; [1]) was “Low or no fluorescent signal” and the “fluorescent signal in single-component treated cells” value (Sf9 cells; [1]) was “Low or no fluorescent signal”.

“bis(FLIVI)-K-KKKK; bis(FLIVIGSII)-K-KKKK (chain 1 FLIVIK(FLIVI)KKKK; chain 2 FLIVIGSIIK(FLIVIGSII)KKKK; also: forms branched peptide capsules) [BAPC1]” was tested, and the “internalization of Cy3-dsRNA versus Cy3-dsRNA alone” value (S2 cells; 17.6 μg BAPC1 and 100 ng Cy3-dsRNA, N/P ratio of 15) was “increased internalization of labeled dsRNA” and the “internalization of Cy3-dsRNA versus Cy3-dsRNA alone” value (Sf9 cells; 5.9 μg BAPC1 and 100 ng Cy3-dsRNA, N/P ratio of 5, 4 hours) was “Increased internalization of labeled dsRNA”.
